According to ChEMBL document CHEMBL1152721, “A simple in vitro assay for assessing the reactivity of nitrile containing compounds” (Bioorg Med Chem Lett, 2009):

Legend:
[1] = Binding affinity to glutathione assessed as typical half life
[2] = Binding affinity to cysteine assessed as typical half life
[3] = Binding affinity to glutathione assessed as typical half life at 1.4 nM
[4] = Binding affinity to cysteine assessed as typical half life at 1.4 nM

COC(=O)C1=C(C#N)NC(C)=C(C(=O)OC(C)C)C1c1cccc([N+](=O)[O-])c1 (stereo not given)
T1/2 [1]: 40 h | T1/2 [2]: 2 h

COCCN1CCC(Cc2ccc(C(=O)NCc3cnc(C#N)nc3NCC(C)(C)C)cc2)CC1
T1/2 [1]: 7.3 h

CCCN1CCN(c2ccc(C(=O)NC3(C(=O)NCC#N)CCCCC3)cc2)CC1
T1/2 [3]: 97 h | T1/2 [4]: < 10 h
